Experimental data reported in ChEMBL document CHEMBL1201862, “PubChem BioAssay data set” (2004).
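Compound exposure: 48 hours, 5 concentrations, 96-well plates. GI50: concentration for 50% inhibition of growth.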 Calls of active or inactive are those of the source. No stated cut-off is given here; in the data, active = GI50 up to about 1.1 µM and inactive = higher.

Legend:
Test in all cases: growth of human tumour cells (NCI), 48 h
[1] = tested on: BT-549
[2] = tested on: OVCAR-5
[3] = tested on: PC-3
[4] = tested on: UACC-62
[5] = tested on: M14
[6] = tested on: MDA-N
[7] = tested on: SNB-75
[8] = tested on: MDA-MB-435
[9] = tested on: KM12
[10] = tested on: TK-10
[11] = tested on: NCI-H23
[12] = tested on: T47D
[13] = tested on: SK-OV-3
[14] = tested on: UO-31
[15] = tested on: OVCAR-3
[16] = tested on: EKVX
[17] = tested on: MDA-MB-231
[18] = tested on: NCI-H226
[19] = tested on: NCI-H460
[20] = tested on: A498
[21] = tested on: HCT-15
[22] = tested on: SNB-19
[23] = tested on: SW-620
[24] = tested on: SK-MEL-5
[25] = tested on: HCC 2998
[26] = tested on: HOP-92
[27] = tested on: DU-145
[28] = tested on: A549
[29] = tested on: LOX IMVI
[30] = tested on: IGROV-1
[31] = tested on: SF-539
[32] = tested on: SK-MEL-28
[33] = tested on: HT-29
[34] = tested on: U-251
[35] = tested on: HL-60
[36] = tested on: SK-MEL-2
[37] = tested on: RXF 393
[38] = tested on: MCF7
[39] = tested on: 786-0
[40] = tested on: ACHN
[41] = tested on: OVCAR-8
[42] = tested on: MOLT-4
[43] = tested on: CAKI-1
[44] = tested on: HOP-62
[45] = tested on: OVCAR-4
[46] = tested on: SF-268
[47] = tested on: SN12C
[48] = tested on: HCT-116
[49] = tested on: NCI/ADR-RES
[50] = tested on: COLO 205
[51] = tested on: SF-295
[52] = tested on: UACC-257
[53] = tested on: K562
[54] = tested on: CCRF-CEM
[55] = tested on: RPMI-8226
[56] = tested on: Malme-3M
[57] = tested on: SR
[58] = tested on: Hs-578T
[59] = tested on: NCI-H522

For `CC(C)CC(=O)O[C@H]1C(=O)O[C@@H]2C[C@H]3[C@H](C)C(=O)C(O[C@@H]4O[C@H](CO)[C@@H](O)[C@H](O)[C@H]4O)=C[C@]3(C)[C@H]3[C@@H](O)[C@H](O)[C@]4(C(=O)O)OC[C@]32[C@@H]14` [BRUCEOSIDE E], the GI50 [1] was 95.1 µM (inactive), the GI50 [2] was 94 µM (inactive) and the GI50 [3] was 80.9 µM (inactive). For the same compound, the GI50 [4] was 60 µM (inactive), the GI50 [5] was 91.2 µM (inactive) and the GI50 [6] was 82 µM (inactive). For the same compound, the GI50 [7] was 78 µM (inactive), the GI50 [8] was 61.2 µM (inactive) and the GI50 [9] was 70.1 µM (inactive). For the same compound, the GI50 [10] was 59.6 µM (inactive), the GI50 [11] was 52.4 µM (inactive) and the GI50 [12] was 94.6 µM (inactive). The GI50 [13] was 52.1 µM (inactive) and the GI50 [14] was 71.4 µM (inactive).
`CCCc1c(OC)c(=O)c2c(OC)cc(OC)c3c4c(OC)cc(OC)c5c(=O)c(OC)c(CCC)c(c1c23)c54` was tested, and the GI50 [15] was 14.8 µM (inactive), the GI50 [1] was 15 µM (inactive) and the GI50 [16] was 11.8 µM (inactive). The GI50 [17] was 4.38 µM (inactive), the GI50 [18] was 16.2 µM (inactive) and the GI50 [19] was 13.7 µM (inactive). The GI50 [20] was 19.1 µM (inactive), the GI50 [2] was 15.2 µM (inactive) and the GI50 [21] was 12.8 µM. For the same compound, the GI50 [4] was 11.9 µM (inactive), the GI50 [22] was 19.8 µM (inactive) and the GI50 [23] was 17.3 µM (inactive). For the same compound, the GI50 [24] was 10.7 µM (inactive), the GI50 [25] was 20.1 µM (inactive) and the GI50 [26] was 10.9 µM (inactive). The GI50 [27] was 12.2 µM (inactive), the GI50 [28] was 19.4 µM (inactive) and the GI50 [29] was 7.4 µM (inactive). For the same compound, the GI50 [30] was 14.8 µM (inactive), the GI50 [31] was 15.1 µM (inactive) and the GI50 [5] was 16.9 µM (inactive). For the same compound, the GI50 [32] was 13.4 µM (inactive), the GI50 [33] was 11.4 µM (inactive) and the GI50 [6] was 15.2 µM (inactive). The GI50 [34] was 16 µM (inactive), the GI50 [35] was 2.77 µM (inactive) and the GI50 [36] was 22 µM (inactive). The GI50 [37] was 20.7 µM (inactive), the GI50 [38] was 17.1 µM (inactive) and the GI50 [7] was 7.23 µM (inactive). For the same compound, the GI50 [39] was 13.1 µM (inactive), the GI50 [40] was 15.8 µM (inactive) and the GI50 [8] was 16 µM (inactive). For the same compound, the GI50 [41] was 17.5 µM (inactive), the GI50 [42] was 7.91 µM (inactive) and the GI50 [43] was 14.6 µM (inactive). For the same compound, the GI50 [9] was 14.6 µM (inactive), the GI50 [44] was 18 µM (inactive) and the GI50 [45] was 13.3 µM (inactive). The GI50 [10] was 21 µM (inactive), the GI50 [11] was 14.9 µM (inactive) and the GI50 [12] was 4.07 µM (inactive). For the same compound, the GI50 [46] was 16.1 µM (inactive), the GI50 [13] was 15.5 µM (inactive) and the GI50 [14] was 15.5 µM (inactive). For the same compound, the GI50 [47] was 18.6 µM (inactive), the GI50 [48] was 13.8 µM (inactive) and the GI50 [49] was 21.2 µM (inactive). The GI50 [50] was 8.47 µM (inactive), the GI50 [51] was 17.8 µM (inactive) and the GI50 [52] was 20.7 µM (inactive).
In the case of `CC[N+]1(C)CCC(O)(c2ccc(Cl)cc2)C(C(=O)c2ccc(Cl)cc2)C1` (configuration not stated), the GI50 [53] is reported as 4.09 µM (inactive), the GI50 [15] is reported as 20.5 µM (inactive) and the GI50 [16] is reported as > 10 µM (inactive). The GI50 [17] was 14.9 µM (inactive), the GI50 [18] was 23.8 µM (inactive) and the GI50 [19] was 27.5 µM (inactive). For the same compound, the GI50 [20] was 27.9 µM (inactive), the GI50 [2] was 19.1 µM (inactive) and the GI50 [21] was 22 µM. For the same compound, the GI50 [54] was 2.74 µM (inactive), the GI50 [55] was 1.73 µM (inactive) and the GI50 [3] was 17.5 µM (inactive). For the same compound, the GI50 [4] was 14.7 µM (inactive), the GI50 [22] was 17.2 µM (inactive) and the GI50 [23] was 1.82 µM (inactive). For the same compound, the GI50 [25] was 19.9 µM (inactive), the GI50 [26] was > 10 µM (inactive) and the GI50 [27] was 18.7 µM (inactive). The GI50 [29] was 5.58 µM (inactive), the GI50 [30] was 18.5 µM (inactive) and the GI50 [5] was 17.4 µM (inactive). For the same compound, the GI50 [56] was 7.31 µM (inactive), the GI50 [32] was 16 µM (inactive) and the GI50 [33] was 29.1 µM (inactive). For the same compound, the GI50 [6] was 19.1 µM (inactive), the GI50 [34] was 24.5 µM (inactive) and the GI50 [35] was 7.83 µM (inactive). For the same compound, the GI50 [37] was 14.4 µM (inactive), the GI50 [38] was 1.1 µM (active) and the GI50 [7] was > 10 µM (inactive). The GI50 [40] was 19 µM (inactive), the GI50 [8] was 19.8 µM (inactive) and the GI50 [41] was 46.6 µM (inactive). For the same compound, the GI50 [42] was 13.7 µM (inactive), the GI50 [57] was 6.34 µM (inactive) and the GI50 [9] was 16.9 µM (inactive). The GI50 [44] was 23.8 µM (inactive), the GI50 [45] was 29.3 µM (inactive) and the GI50 [10] was 17.7 µM (inactive). The GI50 [11] was 17.4 µM (inactive), the GI50 [12] was 2.79 µM (inactive) and the GI50 [46] was 24.5 µM (inactive). The GI50 [13] was 14.6 µM (inactive), the GI50 [14] was 20.1 µM (inactive) and the GI50 [47] was 22.1 µM (inactive). The GI50 [48] was 10.3 µM (inactive), the GI50 [49] was 24.2 µM (inactive) and the GI50 [50] was 4.89 µM (inactive). The GI50 [51] was > 10 µM (inactive), the GI50 [58] was 12.5 µM (inactive) and the GI50 [59] was 1.79 µM (inactive). The GI50 [52] was 24.4 µM (inactive).
